According to patent US20110104081A1, “Oral Compositions for Treatment of Dry Mouth” (priority 2009, published 2011):

Experiment: Water gain (moisture uptake) of treated cotton swatches
Format: physicochemical
Details: dried
Description: For table 2, the test method is as follows: For “no rinse”: 1×1 cm cotton swatches (triplicates) are placed into a weigh boat where each is labeled according to treatment type and number. Initial weights are recorded for each sample. 500 uL of polymer solution is applied to each cotton swatch sample then reweighed as wet weight. Samples are allowed to dry overnight at room temperature conditions. Sample weights are recorded in the following morning as “no rinse”. Samples are then placed on a tray in the incubator at 37° C., 3.3% CO2, and approximately 90% humidity (the metal tray at the bottom of the incubator has plenty of distilled water in the pan to ensure constant humidity). Opening and closing the incubator door frequently causes parameters to shift so minimizing this will ensure proper control over parameter. Samples are incubated for 8 hours then reweighed. The weights represent the moisture uptake ability for the treated samples. For “with rinse”: Following the weighing, samples are rinsed for 5 seconds in 500 g of vortexing water, and placed into respective weigh boat. Samples are dried overnight at room temperature conditions. Samples are weighed and placed in the incubator the following morning similar to above described procedure and weights are recorded as “with rinse”.

Water gain (No Rinse, incubated 8 hours at 37° C., approximately 90% humidity): 393.3 mg
Water gain (With Rinse, rinsed with water, incubated): 126.9 mg
SMILES: OCC(O)CO [40% glycerin, glycerin]
